{"source": "paper PMC7562955", "about": "(Nature Communications, 2020)", "format_in_all_cases": "cell-based", "key": {"TLR1/2 [1]": {"target": "T1, TLR1/2 (Homo sapiens, UniProt O60603+Q15399)", "T1 construct": "Human Peripheral Blood Mononuclear cells (hPBMCs) were collected from healthy adult donors; endogenous in cells; host or cells: primary human PBMCs", "T1 sequence (Q15399 25-786)": "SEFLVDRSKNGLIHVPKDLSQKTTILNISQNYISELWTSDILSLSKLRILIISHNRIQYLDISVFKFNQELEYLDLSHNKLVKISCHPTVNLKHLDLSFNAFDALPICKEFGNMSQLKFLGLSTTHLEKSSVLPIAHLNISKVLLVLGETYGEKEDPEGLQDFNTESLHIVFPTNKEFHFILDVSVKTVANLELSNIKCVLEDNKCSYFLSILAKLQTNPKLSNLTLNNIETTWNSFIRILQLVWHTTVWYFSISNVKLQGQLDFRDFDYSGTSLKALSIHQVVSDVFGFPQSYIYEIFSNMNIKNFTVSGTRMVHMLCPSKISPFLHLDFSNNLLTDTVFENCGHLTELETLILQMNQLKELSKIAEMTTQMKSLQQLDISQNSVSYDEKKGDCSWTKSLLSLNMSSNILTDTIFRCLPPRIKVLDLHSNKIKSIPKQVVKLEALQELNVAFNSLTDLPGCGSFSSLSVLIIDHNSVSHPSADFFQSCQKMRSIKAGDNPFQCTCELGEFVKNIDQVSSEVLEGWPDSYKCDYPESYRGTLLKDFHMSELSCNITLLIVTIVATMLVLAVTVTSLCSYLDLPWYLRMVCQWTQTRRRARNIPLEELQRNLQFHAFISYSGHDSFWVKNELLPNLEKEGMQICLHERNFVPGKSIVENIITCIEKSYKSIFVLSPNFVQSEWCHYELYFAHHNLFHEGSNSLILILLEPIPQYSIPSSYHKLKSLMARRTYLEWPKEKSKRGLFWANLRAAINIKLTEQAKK", "T1 sequence (O60603 19-784 limits assumed)": "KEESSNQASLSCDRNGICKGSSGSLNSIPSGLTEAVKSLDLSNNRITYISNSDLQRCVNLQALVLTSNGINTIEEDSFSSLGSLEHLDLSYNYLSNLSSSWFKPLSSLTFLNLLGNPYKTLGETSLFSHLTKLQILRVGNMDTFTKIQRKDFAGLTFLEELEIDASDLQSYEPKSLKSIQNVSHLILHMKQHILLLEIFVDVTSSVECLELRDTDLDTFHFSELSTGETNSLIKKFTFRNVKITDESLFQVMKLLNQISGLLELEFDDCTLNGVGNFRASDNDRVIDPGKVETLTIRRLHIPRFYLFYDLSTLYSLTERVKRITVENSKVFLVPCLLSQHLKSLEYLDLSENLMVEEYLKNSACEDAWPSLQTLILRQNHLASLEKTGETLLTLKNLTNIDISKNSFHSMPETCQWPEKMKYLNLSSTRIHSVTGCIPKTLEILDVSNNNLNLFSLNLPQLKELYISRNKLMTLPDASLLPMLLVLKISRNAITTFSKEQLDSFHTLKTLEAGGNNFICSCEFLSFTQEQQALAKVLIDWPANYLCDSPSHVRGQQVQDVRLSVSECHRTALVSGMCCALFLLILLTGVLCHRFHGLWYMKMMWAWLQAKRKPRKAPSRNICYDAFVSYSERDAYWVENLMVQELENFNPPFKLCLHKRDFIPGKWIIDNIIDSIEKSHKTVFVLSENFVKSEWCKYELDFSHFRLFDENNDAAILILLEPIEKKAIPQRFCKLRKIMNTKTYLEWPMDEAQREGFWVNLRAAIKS", "assay": "TNF-α production by human PBMC stimulated by TLR1/2 ligand Pam3CSK4 (ELISA)", "conditions": "for TLR2-dependent TNF-α production: 2.5 μM; for Mean TNF-α / TNF-α: activator PAM3CSK4, antagonist 2.5 μM; for Mean TNF-α: n = 3; for TNF-α: single replicate", "procedure": "Human Peripheral Blood Mononuclear cells (hPBMCs) were collected from healthy adult donors. hPBMCs were cultured in round-bottom 96-well plates (BD Falcon, Durham, NC, USA) with a density of 5 × 10^5 cells/well. Plated cells were pretreated with DMSO or 2.5 μM inhibitors for 3 h and then stimulated by indicated ligands, such as R848 or TLR1/2 specific ligand Pam3CSK4 (Invivogen, HongKong, China), for 20 h in […] of RPMI 1640 medium (Gibco, Paisley, UK) supplemented with 10% FBS, Penicillin-Streptomycin-Glutamine (Gibco, Paisley, UK), 50 μM 2-ME medium at 37 °C in the presence of 5% CO2. Supernatants were collected to measure secreted cytokines by ELISA. Concentration of human IFN-α and TNF-α in the supernatants was measured with Verikine Human IFN-α Multi-Subtype Serum ELISA Kit (PBL Assay Science, Piscataway, NJ, USA) and Human TNF-α Uncoated ELISA (ThermoFisher Scientific, Carlsbad, CA, USA), respectively. This study was approved by the Research Ethics Committee of IMSUT (accession number: 30-100-B20190419)."}, "TLR1/2 [2]": {"target": "T1, TLR1/2", "assay": "TNF-α production by human PBMC stimulated by TLR1/2 ligand Pam3CSK4 (ELISA)", "conditions": "human PBMCs, 2.5 μM"}, "mouse TLR9": {"target": "T2, mouse TLR9 (Mus musculus, UniProt Q9EQU3)", "T2 construct": "host or cells: HEK293 (293-mTLR9)", "T2 sequence (Q9EQU3 26-1032)": "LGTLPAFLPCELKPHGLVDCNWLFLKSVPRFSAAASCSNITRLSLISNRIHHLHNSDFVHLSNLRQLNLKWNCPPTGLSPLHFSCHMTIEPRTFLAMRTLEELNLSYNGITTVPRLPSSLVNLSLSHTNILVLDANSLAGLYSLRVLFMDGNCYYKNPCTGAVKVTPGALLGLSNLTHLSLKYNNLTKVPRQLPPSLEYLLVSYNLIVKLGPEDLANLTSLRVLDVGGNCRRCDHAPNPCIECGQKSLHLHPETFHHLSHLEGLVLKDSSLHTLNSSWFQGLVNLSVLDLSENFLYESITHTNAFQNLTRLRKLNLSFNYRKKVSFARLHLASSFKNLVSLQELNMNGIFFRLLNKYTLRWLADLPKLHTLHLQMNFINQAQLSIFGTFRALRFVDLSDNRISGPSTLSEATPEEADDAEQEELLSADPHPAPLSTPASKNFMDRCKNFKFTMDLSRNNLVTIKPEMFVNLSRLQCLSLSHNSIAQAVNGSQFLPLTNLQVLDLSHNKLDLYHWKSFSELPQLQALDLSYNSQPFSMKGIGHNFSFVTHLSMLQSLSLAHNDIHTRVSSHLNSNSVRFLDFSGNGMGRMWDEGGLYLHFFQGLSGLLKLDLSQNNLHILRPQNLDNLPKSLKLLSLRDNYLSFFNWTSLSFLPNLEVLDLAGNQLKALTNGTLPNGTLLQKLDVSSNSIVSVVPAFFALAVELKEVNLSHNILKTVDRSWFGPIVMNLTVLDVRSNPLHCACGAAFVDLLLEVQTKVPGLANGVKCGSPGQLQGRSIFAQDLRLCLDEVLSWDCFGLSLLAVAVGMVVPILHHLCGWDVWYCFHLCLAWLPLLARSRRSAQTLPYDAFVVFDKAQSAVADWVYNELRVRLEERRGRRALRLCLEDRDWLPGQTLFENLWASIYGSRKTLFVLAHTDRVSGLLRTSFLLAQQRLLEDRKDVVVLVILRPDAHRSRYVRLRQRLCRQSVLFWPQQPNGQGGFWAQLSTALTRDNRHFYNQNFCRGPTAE", "assay": "Mouse TLR9 reporter gene assay (NF-kB luciferase, HEK293)", "conditions": "CpG1826 100 nM", "procedure": "Compounds were dissolved in dimethyl sulfoxide. The day before transfection, mouse TLR7 genestably-expressing HE293 cell line (293XL-mTLR7 cell, InvivoGen, USA) and mouse TLR9 genestably-expressing HEK293 cell line (293-mTLR9 cell, InvivoGen) were seeded in collagen-coated 6-well plate (AGC techno glass) at 3 × 10^5 cells/well in DMEM (GIBCO) with 10% fetal bovine serum (GIBCO), and 10 μg ml^−1 Blastcidin S HCl (GIBCO) and incubated at 37 °C in 5% CO2. The plates were incubated over-night and then cotransfected with 1 μg (mouse TLR7) or 0.3 μg (mouse TLR9) of pNF-kB-Luciferase reporter in a 10:1 ratio with 4 μl of FuGene6 transfection reagent (Promega corporation, USA) following the manufacturer’s instructions. The plates were incubated 24 h. The cells re-seeded into 96-well plate (AGC techno glass) at 2 × 10^4 cells/well in DMEM (GIBCO) with 10% fetal bovine serum (GIBCO), and 10 μg ml^−1 Blastcidin S HCl (GIBCO) and then inhibition with various concentrations of compound. HCQ (mouse TLR7/9, Acros Organics, United Kingdom) was used as positive control. After 30 min, R848 (mouse TLR7/8 ligand) or CpG1826 (mouse TLR9 ligand, Hokkaido System Science Co., Ltd.) added to each well, wherein each final concentration were adjusted to 200 nM R848 (mouse TLR7) or 100 nM CpG1826 (mouse TLR9). The plates were then incubated an additional 6 h at 37 °C in 5% CO2, and then the luciferase activity was measured as activation of mouse TLR7 and 9. The luciferase activity was evaluated as follows: Bright-GloTM Luciferase Assay System (Promega) was added to the incubated sample (100 μl/well); after 2 min, the luminescence intensity of each sample was measured with a luminometer (Envision)."}}, "note": "Values joined by “and” are separate entries in the source; they are usually repeats but may differ in a detail not shown here. Equal entries are not always repeated.", "data": [{"compound": "CCOc1nc(N)c2nc(-c3cncc(F)c3)n(Cc3ccc(CN4C[C@@H]5C[C@H]4CN5C)cc3)c2n1", "note": "[Cpd-6]", "values": [{"measurement": "TLR2-dependent TNF-α production", "setting": "TLR1/2 [1]", "value": "neither Cpd-6 nor Cpd-7 blocked"}, {"measurement": "Mean TNF-α", "setting": "TLR1/2 [1]", "value": 2207.35, "unit": "pg/mL"}, {"measurement": "TNF-α", "setting": "TLR1/2 [1]", "value": "2553.64 pg/mL and 2237.72 pg/mL and 1830.68 pg/mL"}, {"measurement": "cytotoxicity", "setting": "TLR1/2 [2]", "value": "not cytotoxic"}]}, {"compound": "CCOc1nc(C)c2nc(-c3cncc(F)c3)n(Cc3ccc(CN4C[C@@H]5C[C@H]4CN5C)cc3)c2n1", "note": "[Cpd-7]", "values": [{"measurement": "TLR2-dependent TNF-α production", "setting": "TLR1/2 [1]", "value": "neither Cpd-6 nor Cpd-7 blocked"}, {"measurement": "Mean TNF-α", "setting": "TLR1/2 [1]", "value": 2407.5, "unit": "pg/mL"}, {"measurement": "TNF-α", "setting": "TLR1/2 [1]", "value": "2596.39 pg/mL and 2051.11 pg/mL and 2574.99 pg/mL"}, {"measurement": "mouse TLR9 activity, reporter signal", "setting": "mouse TLR9; compound 0.0001 nM (as headed)", "value": 670258}, {"measurement": "mouse TLR9 activity, reporter signal", "setting": "mouse TLR9; compound 0.001 nM (as headed)", "value": 769686}, {"measurement": "mouse TLR9 activity, reporter signal", "setting": "mouse TLR9; compound 0.003 nM (as headed)", "value": 682550}, {"measurement": "mouse TLR9 activity, reporter signal", "setting": "mouse TLR9; compound 0.01 nM (as headed)", "value": 681778}, {"measurement": "mouse TLR9 activity, reporter signal", "setting": "mouse TLR9; compound 0.03 nM (as headed)", "value": 778720}, {"measurement": "mouse TLR9 activity, reporter signal", "setting": "mouse TLR9; compound 0.1 nM (as headed)", "value": 762582}, {"measurement": "mouse TLR9 activity, reporter signal", "setting": "mouse TLR9; compound 0.3 nM (as headed)", "value": 758536}, {"measurement": "mouse TLR9 activity, reporter signal", "setting": "mouse TLR9; compound 1 nM (as headed)", "value": 750674}, {"measurement": "mouse TLR9 activity, reporter signal", "setting": "mouse TLR9; compound 3 nM (as headed)", "value": 718794}, {"measurement": "mouse TLR9 activity, reporter signal", "setting": "mouse TLR9; compound 10 nM (as headed)", "value": 519616}, {"measurement": "mouse TLR9 activity, reporter signal", "setting": "mouse TLR9; compound 30 nM (as headed)", "value": 67454}, {"measurement": "mouse TLR9 activity, reporter signal", "setting": "mouse TLR9; compound 100 nM (as headed)", "value": 0}, {"measurement": "cytotoxicity", "setting": "TLR1/2 [2]", "value": "not cytotoxic"}]}, {"compound": "CCN(CCO)CCCC(C)Nc1ccnc2cc(Cl)ccc12", "note": "(centres unmarked) [HCQ, hydroxychloroquine, reference compound]", "values": [{"measurement": "mouse TLR9 activity, reporter signal", "setting": "mouse TLR9; compound 0.0001 nM (as headed)", "value": 670258}, {"measurement": "mouse TLR9 activity, reporter signal", "setting": "mouse TLR9; compound 0.001 nM (as headed)", "value": 691508}, {"measurement": "mouse TLR9 activity, reporter signal", "setting": "mouse TLR9; compound 0.003 nM (as headed)", "value": 691964}, {"measurement": "mouse TLR9 activity, reporter signal", "setting": "mouse TLR9; compound 0.01 nM (as headed)", "value": 727784}, {"measurement": "mouse TLR9 activity, reporter signal", "setting": "mouse TLR9; compound 0.03 nM (as headed)", "value": 642512}, {"measurement": "mouse TLR9 activity, reporter signal", "setting": "mouse TLR9; compound 0.1 nM (as headed)", "value": 455236}, {"measurement": "mouse TLR9 activity, reporter signal", "setting": "mouse TLR9; compound 0.3 nM (as headed)", "value": 212962}, {"measurement": "mouse TLR9 activity, reporter signal", "setting": "mouse TLR9; compound 1 nM (as headed)", "value": 48988}, {"measurement": "mouse TLR9 activity, reporter signal", "setting": "mouse TLR9; compound 3 nM (as headed)", "value": 7184}, {"measurement": "mouse TLR9 activity, reporter signal", "setting": "mouse TLR9; compound 10 nM (as headed)", "value": 3474}, {"measurement": "mouse TLR9 activity, reporter signal", "setting": "mouse TLR9; compound 30 nM (as headed)", "value": 3862}, {"measurement": "mouse TLR9 activity, reporter signal", "setting": "mouse TLR9; compound 100 nM (as headed)", "value": 0}]}]}
